Test results reported in patent US20100221709A1, “METHODS FOR IDENTIFYING AGENTS THAT MODULATE APOPTOSIS IN CELLS THAT OVER-EXPRESS A BCL-2 FAMILY MEMBER PROTEIN” (priority 2005, published 2010).
Where “and” joins values, the source holds several entries; their conditions need not be identical. Equal entries are not always repeated.

What was measured:
RPMI-8226 cells [1] = experiment: GI50 assay, MTT cell proliferation; format: cell-based, human
Description: RPMI-8226 cells were grown in 96 well plates for 24 h prior to addition of 2-methoxy antimycins. Antimycin stocks in dimethyl sulfoxide (DMSO) were serially diluted in RPMI. Cells were incubated for 48 h with compounds at final compound concentrations ranging from 10^−4 to 10^−8 M. MTT cell proliferation assays were performed in quadruplicate and percent growth inhibitions were calculated as (A570 (control cells)-A570 (treated cells))/A570 (control cells). GI50 was extrapolated from semi-log plots of the dose response for each compound. […] After 72 h drug exposures, 1 μCi/ml [^3H]-thymidine was added to wells. Cells were incubated for an additional 24 h, and then transferred to GF/C filter plates (Packard) using a plate washer. Filters were dried, added to scintillant, and counted in a TopCount® scintillation counter (Packard). Drug response is expressed as the percentage of vehicle-treated controls, and each value shown is the average of three determinations.

[2] = LC/MS analyses of plasma after administration; format: in vivo, mice; settings: preliminary LC/MS analyses
RPMI-8226 cells [3] = experiment: Combined cytotoxicity with standard anticancer agents; format: cell-based, human; settings: suboptimal combinations, 24 h
Description: Concentrations of standard chemotherapeutic agents were adjusted to achieve <20% cell death as single agents over 24 h treatments. Cells treated with 20 μg/ml 2-OMe antimycin A1 and indicated concentrations of etoposide, melphalan or daunorubicin. Predicted viability at 24 h is derived from additive cytotoxicity of single agents (open symbols). Observed viability for combination (closed symbols). Each symbol represents separate experiment. Viabilities (PI-negative) are normalized to untreated cells.

[4] = system: RPMI-8226 human myeloma cells; experiment: RPMI-8226 myeloma tumor xenografts
Description: Six to nine-week old Nod/Les2 Scid/J mice were inoculated with 3×10^7 RPMI-8226 cells by interscapular subcutaneous injection. Mice were maintained under specific pathogen-free conditions. Palpable tumor nodules were measured in two dimensions with calipers and tumor volumes calculated in mm^3 as (length×width^2)/2. Blood samples were collected by retro-orbital bleed for human light chain measurements by ELISA with lambda-specific antibody and horseradish peroxidase detection (BD Biosciences). Animals were sacrificed by halothane inhalation, and histologic examination of tumors and internal organs was performed. All experiments were approved by the Fred Hutchinson Cancer Research Center Institutional Animal Care and Use Committee.
(§1) 2-OMe antimycin A1 was synthesized from antimycin A1 (Sigma) and dissolved in phosphate-buffered saline with 20% Cremaphor, 25% ethanol (3 mg/ml) for parenteral administration by tail vein injection in a total volume of 100 μl. Control mice received injections of Cremaphor/ethanol vehicle.
Tissues were fixed in 10% buffered formalin, embedded in paraffin, sectioned and stained with hematoxylin and eosin. TUNEL staining was performed using 0.3 units/ml terminal deoxynucleotidyl transferase and biotinylated dATP with development by avidin-biotin peroxidase method. Bcl-xL immunohistochemistry was performed using anti-Bcl-xL antibody (BD Biosciences) followed by biotinylated secondary antibody and peroxidase-labeled ABC reagent (Vector, Burlingame Calif.).
(§2) To determine whether 2-OMeAA1 has anti-tumor activity in vivo, a total of 12 NOD/SCID mice in three experiments were inoculated with 3×10^7 RPMI-8226 human myeloma cells by interscapular subcutaneous injection. […] In total, six mice received three intravenous doses of 10 mg/kg 2-OMeAA1 on alternate days starting on day 6. Six control mice received injections of Cremaphor/ethanol vehicle without drug.

NOD/SCID mice = experiment: In vivo toxicity, intravenous dosing
Description: as §1, §2

Bcl-xL(ΔC) WT = target: T1, Bcl-xL(ΔC) WT (Homo sapiens, UniProt Q07817); experiment: Pore assay, calcein release from large unilamellar vesicles; format: biochemical
T1 construct: inferred from pET22b(+) NdeI/XhoI cloning and nickel-NTA purification) (C); made in house; host or cells: Escherichia coli BL21(DE3) carrying pUB520
T1 sequence (Q07817 1-211 limits assumed, stated change not applied): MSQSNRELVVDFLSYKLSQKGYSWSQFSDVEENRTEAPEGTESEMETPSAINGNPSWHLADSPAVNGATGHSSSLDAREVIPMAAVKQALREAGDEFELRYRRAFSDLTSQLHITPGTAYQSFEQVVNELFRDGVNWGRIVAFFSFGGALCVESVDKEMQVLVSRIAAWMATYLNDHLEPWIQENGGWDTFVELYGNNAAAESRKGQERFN
Description: Large unilamellar vesicles composed of 60% dioleoylphophatidylcholine and 40% dioleoylphosphatidylglycerol were prepared by the extrusion method of Mayer et al., supra. Lipid stocks, in chloroform, were mixed and dried under a stream of nitrogen gas. The lipid was resuspended by vortexing for 30 min in a solution of 40 mM calcein (Molecular Probes), 25 mM KCl, and 10 mM KOAc, pH 5.0. After 10 freeze-thaw cycles, the lipid suspension was extruded through two 0.1 μm pore diameter Nucleopore filters. Non-entrapped dye was removed by passage over a Sephadex G10 column (Amersham Biosciences). Lipid concentration was measured using the ammonium ferrothiocyanate method (Stewart, Anal. Biochem. 104:10-14, 1980).
For pore assays, recombinant truncated Bcl-2 family protein or mutant protein (Bcl-xL(ΔC)) (500 nM) was added to large unilamellar vesicles (60 μM lipid concentration) in 100 mM KCl, 10 mM KOAc, pH 5.0, and fluorescence measured (490 nm excitation, 520 nm emission) with a Fluoromax-3 spectrophotometer. Peptides of the BH3 domain were incubated with the Bcl-xL(ΔC) 5 min prior to mixing with liposomes. AA1 was added to liposomes 1 min before adding the Bcl-xL(ΔC) protein. Samples for kinetic assays were analyzed in a thermostatted cuvette at 37° C. with constant stirring. Dose responses were measured in black quartz microplates (Hellma) at room temperature. Calcein release was expressed as percentage of maximum release with detergent lysis (0.1% Triton X-100).

[5] = system: TAMH cells over-expressing Bcl-xL F97W; experiment: STS and antimycin toxicity, Alamar Blue viability; format: cell-based, murine; settings: 24 h treatment
Description: (§3) TAMH cells were transfected with DNA encoding each of the mutant Bcl-xL proteins by lipofection (See Example 1 for method). For analysis of Bcl-xL expression, 20 μg of cell protein was separated by 20% SDS-PAGE and transferred to nitrocellulose membranes. Immunodetection of Bcl-xL was carried out using rabbit anti-Bcl-xL antibody and Protein A/horseradish peroxidase conjugate, followed by chemiluminescent detection. Cells were grown to about 80% confluence in 96-well plates followed by addition of 100 μl of 2×AA1 or staurosporine (STS) solution in complete medium. STS is a natural product originally isolated from the bacterium Streptomyces and found to be capable of inducing apoptosis in certain cells and which induction of apoptosis could be blocked by the expression of a Bcl-2 family protein. Cell viability was determined spectrophotometrically after 24 h treatment as the ratio of reduced and oxidized Alamar Blue (BIOSOURCE) at 570 nm and 600 nm, respectively. All results were normalized against DMSO controls. LD50 values were calculated by non-linear regression analysis using Prism software (Graphpad).

[6] = system: TAMH cells over-expressing Bcl-xL E92L; experiment: STS and antimycin toxicity, Alamar Blue viability; format: cell-based, murine; settings: 24 h treatment
Description: as §3

[7] = system: TAMH cells over-expressing Bcl-xL F146L; experiment: STS and antimycin toxicity, Alamar Blue viability; format: cell-based, murine; settings: for LD50: 24 h treatment
Description: as §3

[8] = system: TAMH cells over-expressing Bcl-xL WT; experiment: STS and antimycin toxicity, Alamar Blue viability; format: cell-based, murine; settings: 24 h treatment
Description: as §3

[9] = system: TAMH cells over-expressing Bcl-xL A142L; experiment: STS and antimycin toxicity, Alamar Blue viability; format: cell-based, murine; settings: for LD50: 24 h treatment
Description: as §3

Bcl-xL(ΔC) F146L = target: T2, Bcl-xL(ΔC) F146L (Homo sapiens, UniProt Q07817, F146L); experiment: Fluorescence anisotropy binding
T2 construct: inferred from pET22b(+) NdeI/XhoI cloning and nickel-NTA purification) (C); made in house; host or cells: Escherichia coli BL21(DE3) carrying pUB520
T2 sequence (Q07817 1-211 F146L limits assumed): as the sequence (Q07817 1-211 limits assumed, stated change not applied) above, with F146L counted along it
Description: (§4) A pET22b (Novagen) vector coding for Bcl-xL(ΔC), a mutant Bcl-xL protein without the COOH terminal region, was transformed into Escherichia coli BL21(DE3) cells that carried pUB520 (encoding human Arg tRNA) and grown to an A600 of 0.6. Protein expression was induced with 0.1 mM isopropyl β-D-thiogalactoside at 30° C. The cells were resuspended 1:5 (w/v) in PEB buffer (50 mM Tris, pH 8.0, 200 mM NaCl, 0.2 mM phenylmethylsulfonyl fluoride, 5 mM β-mercaptoethanol, 5 mM imidazole, and 1% (v/v) glycerol), and stirred for 20 min at 4° C. Cells were disrupted by pulse sonication, and the soluble fraction was loaded onto a nickel-nitrilotriacetic acid column (Qiagen) equilibrated with PEB buffer. The column was washed with 40 mM imidazole, eluted with 200 mM imidazole, and the protein fractions were pooled and dialyzed (50 mM Tris, pH 8.0, 200 mM NaCl, 0.2 mM phenylmethylsulfonyl fluoride) at 4° C. overnight. The dialyzed protein was concentrated to 10 mg/ml and fractionated on a Superdex 75 gel filtration column (Amersham Biosciences). The fractions containing Bcl-xL(ΔC) protein were pooled, exchanged into low-salt buffer (same as for previous dialysis buffer, except 50 mM NaCl), and loaded onto a MonoQ anion exchange column (Amersham Biosciences). Protein was eluted from the column with increasing NaCl gradient, pooled and concentrated.
(§5) All reagents were prepared in 0.2 μm-filtered PBS with fresh 1 mM DTT. […] Slit widths were set at 10 nm for both excitation and emission.

Bcl-xL(ΔC) F97W = target: T3, Bcl-xL(ΔC) F97W (Homo sapiens, UniProt Q07817, F97W); experiment: Fluorescence anisotropy binding
T3 construct: inferred from pET22b(+) NdeI/XhoI cloning and nickel-NTA purification) (C); made in house; host or cells: Escherichia coli BL21(DE3) carrying pUB520
T3 sequence (Q07817 1-211 F97W limits assumed): as the sequence (Q07817 1-211 limits assumed, stated change not applied) above, with F97W counted along it
Description: as §4, §5

Bcl-xL(ΔC) A142L = target: T4, Bcl-xL(ΔC) A142L (Homo sapiens, UniProt Q07817, A142L); experiment: Fluorescence anisotropy binding
T4 construct: inferred from pET22b(+) NdeI/XhoI cloning and nickel-NTA purification) (C); made in house; host or cells: Escherichia coli BL21(DE3) carrying pUB520
T4 sequence (Q07817 1-211 A142L limits assumed): as the sequence (Q07817 1-211 limits assumed, stated change not applied) above, with A142L counted along it
Description: as §4, §5

[10] = system: TAMH vector-only control cells; experiment: STS toxicity, Alamar Blue viability; format: cell-based, murine; settings: 24 h treatment
Description: as §3

2-OMe antimycin A5
activity (GI50) relative to 2-OMe antimycin A1, A2 and A3 (RPMI-8226 cells [1]): approximately ⅓

CCCCCC[C@H]1C(=O)O[C@H](C)[C@H](NC(=O)c2cccc(NC=O)c2OC)C(=O)O[C@@H](C)[C@@H]1OC(=O)CC(C)C [2-OMeAA1, 2-OMe antimycin A1]
reformation of antimycin A1 in plasma [2]: have not demonstrated reformation of antimycin A1 | combined killing with etoposide or melphalan (RPMI-8226 cells [3]): Supra-additive killing | adverse effects in treated mice ([4]; 10 mg/kg): No adverse effects | average reduction of serum levels of human light chain ([4]; 10 mg/kg i.v., after the third injection): 87% | mice with regression of tumor nodules, second round ([4]; 10 mg/kg on alternate days, days 26 to 31): six of six | apoptosis in tumor sections ([4]; 24 and 48 h after a single 10 mg/kg intravenous treatment): widespread apoptosis | mice with tumor regression during treatment ([4]; three i.v. doses of 10 mg/kg on alternate days from day 6): Five of six | histologic examination of normal tissues (NOD/SCID mice; 10 mg/kg): No cellular injury or inflammation | LD50 dose (NOD/SCID mice; schedule of 3 intravenous doses on alternate days): 20 mg/kg | mice survived without apparent toxicity (NOD/SCID mice; three intravenous doses at 10 mg/kg on alternate days): 6/6 | effect on Bcl-xL pore-forming activity (FIG. 3A) (Bcl-xL(ΔC) WT): inhibited

CCCCCC[C@H]1C(=O)O[C@H](C)[C@H](NC(=O)c2cccc(NC=O)c2O)C(=O)O[C@@H](C)[C@@H]1OC(=O)CC(C)C [AA1, antimycin A1]
LD50 [5]: 5.12 ± 0.94^2 μM | LD50 ([5]; listed as antimycin A1): 5.12 ± 0.9 µM | LD50 [6]: 1.72 ± 0.34^2 μM | LD50 ([6]; listed as antimycin A1): 1.72 ± 0.3 µM | sensitivity of mutant cells to antimycin A1 [7]: completely insensitive | LD50 [7]: >10 µM | LD50 [8]: 0.47 ± 0.07 µM | LD50 ([8]; listed as antimycin A1): 0.47 µM | sensitivity of mutant cells to antimycin A1 [9]: completely insensitive | LD50 [9]: >10 µM | fold decrease in AA1 affinity (Bcl-xL(ΔC) F146L): ~10 fold | fold increase in Kd of AA1 binding compared with Bcl-xL wt(ΔC) (Bcl-xL(ΔC) F97W): 8 fold | fold increase in Kd of AA1 binding compared with Bcl-xL wt(ΔC) (Bcl-xL(ΔC) A142L): 20 fold | effect on Bcl-xL pore-forming activity (FIG. 3A) (Bcl-xL(ΔC) WT): inhibited

CN[C@@H]1C[C@H]2O[C@@](C)([C@@H]1OC)n1c3ccccc3c3c4c(c5c6ccccc6n2c5c31)C(=O)NC4 [STS, staurosporine]
LD50 [5]: 0.34 ± 0.10 µM | LD50 [6]: 0.52 ± 0.12 µM | LD50 [7]: 0.38 ± 0.04 µM | LD50 [8]: 0.58 ± 0.1 µM and 0.58 ± 0.14 µM | LD50 [9]: 0.49 ± 0.11 µM | LD50 [10]: 0.11 ± 0.01 µM
